According to PubChem BioAssay AID1963838 (Molecular Pharmacology Branch, DTP, NCI, 2024):

Test system: 855422-203-R-J1-PDC complex spheroid viability
Assay: Anticancer human tumor 855422-203-R-J1-PDC patient-derived bladder carcinoma cell line growth inhibition [POLQ]
Details: for IC50: curve of first compound; for viability, T/C: stronger effect = lower value
How it was run: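 PDC + HUVEC + MSC complex spheroids; POLQ inhibitors ± partner drugs; top conc. at/near clinical Cmax, else 10 microM (SN-38 1 microM), half-log dilutions; 37 degrees C, 5% CO2.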

[1] = second compound 0.0316 µM, first compound 0.0316 µM
[2] = second compound 0.0316 µM, first compound 0.1 µM
[3] = second compound 0.0316 µM, first compound 0.316 µM
[4] = second compound 0.0316 µM, first compound 1 µM
[5] = second compound 0.0316 µM, first compound 3.16 µM
[6] = second compound 0.0316 µM, first compound 10 µM
[7] = second compound 0.1 µM, first compound 0.0316 µM
[8] = second compound 0.1 µM, first compound 0.1 µM
[9] = second compound 0.1 µM, first compound 0.316 µM
[10] = second compound 0.1 µM, first compound 1 µM
[11] = second compound 0.1 µM, first compound 3.16 µM
[12] = second compound 0.1 µM, first compound 10 µM
[13] = second compound 0.316 µM, first compound 0.0316 µM
[14] = second compound 0.316 µM, first compound 0.1 µM
[15] = second compound 0.316 µM, first compound 0.316 µM
[16] = second compound 0.316 µM, first compound 1 µM
[17] = second compound 0.316 µM, first compound 3.16 µM
[18] = second compound 0.316 µM, first compound 10 µM
[19] = second compound 1 µM, first compound 0.0316 µM
[20] = second compound 1 µM, first compound 0.1 µM
[21] = second compound 1 µM, first compound 0.316 µM
[22] = second compound 1 µM, first compound 1 µM
[23] = second compound 1 µM, first compound 3.16 µM
[24] = second compound 1 µM, first compound 10 µM
[25] = second compound 3.16 µM, first compound 0.0316 µM
[26] = second compound 3.16 µM, first compound 0.1 µM
[27] = second compound 3.16 µM, first compound 0.316 µM
[28] = second compound 3.16 µM, first compound 1 µM
[29] = second compound 3.16 µM, first compound 3.16 µM
[30] = second compound 3.16 µM, first compound 10 µM
[31] = second compound 10 µM, first compound 0.0316 µM
[32] = second compound 10 µM, first compound 0.1 µM
[33] = second compound 10 µM, first compound 0.316 µM
[34] = second compound 10 µM, first compound 1 µM
[35] = second compound 10 µM, first compound 3.16 µM
[36] = second compound 10 µM, first compound 10 µM
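Also: spheroids exposed to compounds for seven days before readout.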

**Q.** Which results are given for `CC1COCCN1c1cc(-c2ccnn2C)c2ccnc(-c3ccn[nH]3)c2n1` (centres undefined) + COC1C(OC(N)=O)C(O)C(Oc2ccc3c(O)c(NC(=O)c4ccc(O)c(CC=C(C)C)c4)c(=O)oc3c2C)OC1(C)C?
**A.** IC50 (second compound 0.0316 µM): 169 nM; IC50 (second compound 0.1 µM): 171 nM; IC50 (second compound 0.316 µM): 176 nM; IC50 (second compound 1 µM): 193 nM; IC50 (second compound 3.16 µM): 192 nM; IC50 (second compound 10 µM): 183 nM; viability, T/C [1]: 107%; viability, T/C [2]: 71.5%; viability, T/C [3]: 24.6%; viability, T/C [4]: 9.79%; viability, T/C [5]: 8.71%; viability, T/C [6]: 8.63%; viability, T/C [7]: 108%; viability, T/C [8]: 73%; viability, T/C [9]: 23.4%; viability, T/C [10]: 11.9%; viability, T/C [11]: 9.78%; viability, T/C [12]: 9.2%; viability, T/C [13]: 104%; viability, T/C [14]: 74.5%; viability, T/C [15]: 24.1%; viability, T/C [16]: 13.5%; viability, T/C [17]: 11.3%; viability, T/C [18]: 6.39%; viability, T/C [19]: 104%; viability, T/C [20]: 85.4%; viability, T/C [21]: 23.1%; viability, T/C [22]: 13.3%; viability, T/C [23]: 8.72%; viability, T/C [24]: 7.58%; viability, T/C [25]: 111%; viability, T/C [26]: 85%; viability, T/C [27]: 22.9%; viability, T/C [28]: 11%; viability, T/C [29]: 6.98%; viability, T/C [30]: 7.28%; viability, T/C [31]: 118%; viability, T/C [32]: 81.5%; viability, T/C [33]: 21.1%; viability, T/C [34]: 10.7%; viability, T/C [35]: 9.81%; viability, T/C [36]: 7.1%

**Q.** For `CCc1cc2c(N3CCc4c(cc(Cn5ccnc5)cc4-c4cn(C)nc4C(F)(F)F)C3=O)cc(C)nc2c(OC)n1` + COC1C(OC(N)=O)C(O)C(Oc2ccc3c(O)c(NC(=O)c4ccc(O)c(CC=C(C)C)c4)c(=O)oc3c2C)OC1(C)C, which IC50 (second compound 0.0316 µM) is on record?
**A.** Its IC50 is 2800 nM.

**Q.** What about the IC50 (second compound 0.1 µM) of the same compound?
**A.** Its IC50 is 1450 nM.

**Q.** What about the IC50 (second compound 0.316 µM) of the same compound?
**A.** The IC50 was 1640 nM.

**Q.** What about the IC50 (second compound 1 µM) of the same compound?
**A.** The IC50 was 1750 nM.

**Q.** And the IC50 (second compound 3.16 µM)?
**A.** The IC50 was 2120 nM.

**Q.** And the IC50 (second compound 10 µM)?
**A.** Its IC50 is 1220 nM.

**Q.** What about the viability, T/C [1] of the same compound?
**A.** Its viability, T/C is 89.1%.

**Q.** And the viability, T/C [2]?
**A.** The viability, T/C was 78.2%.

**Q.** And the viability, T/C [3]?
**A.** The viability, T/C was 75.6%.

**Q.** What about the viability, T/C [4] of the same compound?
**A.** The viability, T/C was 71.5%.

**Q.** And the viability, T/C [5]?
**A.** The viability, T/C was 45.7%.

**Q.** What about the viability, T/C [6] of the same compound?
**A.** The viability, T/C was 25.3%.

**Q.** What about the viability, T/C [7] of the same compound?
**A.** The viability, T/C was 105%.

**Q.** And the viability, T/C [8]?
**A.** Its viability, T/C is 80%.

**Q.** What about the viability, T/C [9] of the same compound?
**A.** Its viability, T/C is 65.4%.

**Q.** And the viability, T/C [10]?
**A.** The viability, T/C was 58.9%.

**Q.** What about the viability, T/C [11] of the same compound?
**A.** Its viability, T/C is 43.9%.

**Q.** What about the viability, T/C [12] of the same compound?
**A.** The viability, T/C was 24.5%.

**Q.** What about the viability, T/C [13] of the same compound?
**A.** Its viability, T/C is 106%.

**Q.** What about the viability, T/C [14] of the same compound?
**A.** The viability, T/C was 90.2%.

**Q.** And the viability, T/C [15]?
**A.** The viability, T/C was 67.8%.

**Q.** And the viability, T/C [16]?
**A.** The viability, T/C was 63%.

**Q.** And the viability, T/C [17]?
**A.** Its viability, T/C is 39.6%.

**Q.** What about the viability, T/C [18] of the same compound?
**A.** The viability, T/C was 23.5%.

**Q.** And the viability, T/C [19]?
**A.** Its viability, T/C is 114%.

**Q.** And the viability, T/C [20]?
**A.** Its viability, T/C is 79.6%.

**Q.** What about the viability, T/C [21] of the same compound?
**A.** Its viability, T/C is 76.3%.

**Q.** And the viability, T/C [22]?
**A.** The viability, T/C was 63.3%.

**Q.** And the viability, T/C [23]?
**A.** Its viability, T/C is 41.1%.

**Q.** What about the viability, T/C [24] of the same compound?
**A.** The viability, T/C was 25.9%.

**Q.** What about the viability, T/C [25] of the same compound?
**A.** Its viability, T/C is 91.2%.

**Q.** And the viability, T/C [26]?
**A.** The viability, T/C was 86%.

**Q.** What about the viability, T/C [27] of the same compound?
**A.** Its viability, T/C is 75.4%.

**Q.** What about the viability, T/C [28] of the same compound?
**A.** Its viability, T/C is 62%.

**Q.** And the viability, T/C [29]?
**A.** Its viability, T/C is 43.7%.

**Q.** What about the viability, T/C [30] of the same compound?
**A.** Its viability, T/C is 25.4%.

**Q.** What about the viability, T/C [31] of the same compound?
**A.** Its viability, T/C is 83.2%.

**Q.** What about the viability, T/C [32] of the same compound?
**A.** Its viability, T/C is 73.8%.

**Q.** What about the viability, T/C [33] of the same compound?
**A.** Its viability, T/C is 62.7%.

**Q.** And the viability, T/C [34]?
**A.** The viability, T/C was 56.6%.

**Q.** What about the viability, T/C [35] of the same compound?
**A.** Its viability, T/C is 35.8%.

**Q.** And the viability, T/C [36]?
**A.** The viability, T/C was 22.1%.
